Like-named read-outs stand apart in the source and are kept apart here.
How the values were obtained:
[1] = design: method as in earlier work; conditions: cited from earlier work
[2] = design: method as in PMID 17805419; conditions: cited from earlier work
[3] = Apparent elimination half-life (HLapp) and phlebotomy efficiency coefficient in treated family members; assay type: in vivo, human; conditions: family members with regular phlebotomy, except parent
From the text: To evaluate the effect of phlebotomy, versus the expected rate of intrinsic elimination, we graphically and statistically compared the observed decreasing trends in each family member (fitted to a simple exponential decay model) with reference population elimination kinetics. Specifically, for the reference population of occupationally exposed retirees, we considered: i) the 95% confidence interval of the geometric mean elimination rate for each PFAA, and ii) the fastest individual rate of elimination rate among the reference population. For comparative purposes, the concentration of each PFAA in serum on the first day of the intervention was taken as time zero, and the models were forced through this starting point.
One metric that was calculated to compare the efficiency of the phlebotomy for removal of different PFAAs in each family member was termed the phlebotomy efficiency coefficient (EC). This was based on the subtractive difference between HLapp (yrs) in each treated family member and the geometric mean HLin (yrs) of the reference population according to Equation 1 . [drawing 1] (1)

[4] = design: method as in PMID 23980546; conditions: urinary excretion, China, cited from earlier work
[5] = Serum PFAA concentrations in family members during intermittent phlebotomy (HPLC-MS/MS); assay type: in vivo, human; conditions: for Serum concentration before treatment: before phlebotomy
From the text: After receiving informed consent, intermittent phlebotomy was undertaken at an overall rate (Table 2) that was equal to or less than the maximum rate of what is done for routine blood donations at the Canadian Blood Services: ∼500 ccs of whole blood every 56 days. Frequency and timing of blood removal was not consistent between family members because of their personal availability, success at each time of venesection, and compliance of each participant. […] Mineral supplementation was discussed and was taken by each participant.
All serum samples were submitted to ALS Laboratories (Edmonton, AB) for quantitative analysis of PFAAs (see Supporting Information, S1 Table). Samples were extracted by solid phase extraction and concentrations of PFHxS, PFOS, and PFOA were determined using high performance liquid chromatography/tandem mass spectrometry. Formic acid (0.1 M) along with a mixture of isotopically labeled PFAAs (Wellington Laboratories, Guelph, Ontario) were added to 1.0 mL of serum. The mixture was vortexed, sonicated, and subjected to solid phase extraction. The extract was concentrated to 100 uL and an instrument performance internal standard was added along with 200 uL of 90% 20 mM aqueous acetic acid/10% methanol. Procedural blanks were run with each set of samples, and method limits of quantification (LOQ) were 0.5 ng/mL for each analyte. For the few PFAA levels that fell below this LOQ (shown as hollow circles in Figs. 1–3), LOQ/√2 (i.e. 0.35 ng/mL) was substituted for purposes of data analysis. PFHxS, PFOS, and PFOA levels in all participating family members were >LOQ throughout the intervention except for 3 PFOS measurements out of 16 total measurements in the 3rd child and one PFOA measurement out of 9 total measurements in the […]. Written informed consent was given by participants (or parents in the case of children) for their clinical records to be used in this study.

In the case of `O=C(O)C(F)(F)C(F)(F)C(F)(F)C(F)(F)C(F)(F)C(F)(F)C(F)(F)F` [PFOA, perfluorooctanoic acid], the “95th percentile of serum concentration among Canadians” value ([1]; 2009–2011) is listed as 5 ng/mL, the “median serum concentration among Canadians” value [1] is listed as 2.7 ng/mL and the “HLin of fastest eliminator in the reference population” value ([2]; reference population of occupationally exposed retirees (26 individuals)) is listed as 1.5 yrs. The “95% confidence interval of the geometric mean HLin” value ([2]; reference population of occupationally exposed retirees) was 3.0–4.1 yrs, the “HLin, 95% confidence interval” value ([2]; serum, retirees >55 yrs, previously occupationally exposed) was 3.1–4.4 yrs and the “HLapp compared with geometric mean HLin of reference population” value [3] was “significantly shorter”. The HLapp ([4]; males and post-menopausal females) was 2.6 years, the HLapp ([4]; reproductive-aged females) was 2.1 years and the “Serum concentration before treatment” value ([5]; 1st Child) was 4.7 ng/mL. For the same compound, the Serum concentration ([5]; 1st Child, sampling date 2009.10.12) was 3.5 ng/mL, the Serum concentration ([5]; 1st Child, sampling date 2009.12.24) was 4.4 ng/mL and the Serum concentration ([5]; 1st Child, sampling date 2009.6.9) was 4.7 ng/mL. For the same compound, the Serum concentration ([5]; 1st Child, sampling date 2009.9.9) was 3.9 ng/mL, the Serum concentration ([5]; 1st Child, sampling date 2010.10.14) was 2.8 ng/mL and the Serum concentration ([5]; 1st Child, sampling date 2010.1.17) was 4.0 ng/mL. For the same compound, the Serum concentration ([5]; 1st Child, sampling date 2010.2.11) was 2.0 ng/mL, the Serum concentration ([5]; 1st Child, sampling date 2010.4.14) was 3.8 ng/mL and the Serum concentration ([5]; 1st Child, sampling date 2011.12.5) was 1.3 ng/mL. For the same compound, the Serum concentration ([5]; 1st Child, sampling date 2011.5.17, LOD=0.5ng/mL) was 1.8 ng/mL, the Serum concentration ([5]; 1st Child, sampling date 2011.8.12, LOD=0.5ng/mL) was 2.7 ng/mL and the Serum concentration ([5]; 1st Child, sampling date 2012.12.28, LOD=0.5ng/mL) was 1.5 ng/mL. For the same compound, the Serum concentration ([5]; 1st Child, sampling date 2012.4.24) was 2.3 ng/mL, the Serum concentration ([5]; 1st Child, sampling date 2012.8.21) was 1.7 ng/mL and the Serum concentration ([5]; 1st Child, sampling date 2013.3.30) was 1.5 ng/mL. The Serum concentration ([5]; 1st Child, sampling date 2013.7.30) was 1.2 ng/mL, the “Serum concentration before treatment” value ([5]; 2nd Child) was 8.7 ng/mL and the Serum concentration ([5]; 2nd Child, sampling date 2009.10.24) was 5.0 ng/mL. The Serum concentration ([5]; 2nd Child, sampling date 2009.6.6) was 8.7 ng/mL, the Serum concentration ([5]; 2nd Child, sampling date 2009.7.2) was 7.1 ng/mL and the Serum concentration ([5]; 2nd Child, sampling date 2009.7.30) was 9.2 ng/mL. The Serum concentration ([5]; 2nd Child, sampling date 2009.8.24) was 7.4 ng/mL, the Serum concentration ([5]; 2nd Child, sampling date 2009.9.27) was 4.5 ng/mL and the Serum concentration ([5]; 2nd Child, sampling date 2010.1.3) was 4.3 ng/mL. It also gave a Serum concentration ([5]; 2nd Child, sampling date 2010.2.15) of 4.9 ng/mL, a Serum concentration ([5]; 2nd Child, sampling date 2011.10.2) of 3.7 ng/mL and a Serum concentration ([5]; 2nd Child, sampling date 2011.12.24) of 3.8 ng/mL. The Serum concentration ([5]; 2nd Child, sampling date 2011.4.27) was 3.7 ng/mL, the Serum concentration ([5]; 2nd Child, sampling date 2011.8.14) was 3.6 ng/mL and the Serum concentration ([5]; 2nd Child, sampling date 2012.12.24) was 3.0 ng/mL. For the same compound, the Serum concentration ([5]; 2nd Child, sampling date 2012.4.6) was 3.0 ng/mL, the Serum concentration ([5]; 2nd Child, sampling date 2013.5.11.) was 2.1 ng/mL and the Serum concentration ([5]; 2nd Child, sampling date 2013.7.15) was 1.9 ng/mL. The “Serum concentration before treatment” value ([5]; 3rd Child) was 8.2 ng/mL, the Serum concentration ([5]; 3rd Child, sampling date 2010.3.12) was 6.6 ng/mL and the Serum concentration ([5]; 3rd Child, sampling date 2010.5.23) was 5.3 ng/mL. It also gave a Serum concentration ([5]; 3rd Child, sampling date 2011.1.6) of 4.2 ng/mL, a Serum concentration ([5]; 3rd Child, sampling date 2011.11.26) of 2.2 ng/mL and a Serum concentration ([5]; 3rd Child, sampling date 2011.2.24) of 3.3 ng/mL. The Serum concentration ([5]; 3rd Child, sampling date 2011.4.30) was 3.0 ng/mL, the Serum concentration ([5]; 3rd Child, sampling date 2011.6.13) was 3.2 ng/mL and the Serum concentration ([5]; 3rd Child, sampling date 2011.9.27) was 3.0 ng/mL. For the same compound, the Serum concentration ([5]; 3rd Child, sampling date 2012.10.16) was 2.1 ng/mL, the Serum concentration ([5]; 3rd Child, sampling date 2012.1.8) was 2.9 ng/mL and the Serum concentration ([5]; 3rd Child, sampling date 2012.12.9) was 2.5 ng/mL. It also gave a Serum concentration ([5]; 3rd Child, sampling date 2012.3.4) of 3.2 ng/mL, a Serum concentration ([5]; 3rd Child, sampling date 2012.4.28) of 3.2 ng/mL and a Serum concentration ([5]; 3rd Child, sampling date 2013.2.5) of 2.2 ng/mL. The Serum concentration ([5]; 3rd Child, sampling date 2013.3.30) was 2.2 ng/mL, the “Serum concentration before treatment” value ([5]; 4th Child) was 6.8 ng/mL and the “Serum concentration before treatment” value ([5]; Average of 6 family members) was 5.7 ng/mL. For the same compound, the “Serum concentration before treatment” value ([5]; Parent one) was 3.0 ng/mL, the Serum concentration ([5]; Parent one, sampling date 2009.10.11) was 1.6 ng/mL and the Serum concentration ([5]; Parent one, sampling date 2009.10.12) was 2.1 ng/mL. The Serum concentration ([5]; Parent one, sampling date 2009.11.12) was 2.0 ng/mL, the Serum concentration ([5]; Parent one, sampling date 2009.12.14) was 2.1 ng/mL and the Serum concentration ([5]; Parent one, sampling date 2009.2.2) was 3.0 ng/mL. The Serum concentration ([5]; Parent one, sampling date 2009.5.18) was 2.5 ng/mL, the Serum concentration ([5]; Parent one, sampling date 2009.6.1) was 3.1 ng/mL and the Serum concentration ([5]; Parent one, sampling date 2009.7.4) was 2.6 ng/mL. For the same compound, the Serum concentration ([5]; Parent one, sampling date 2009.9.1) was 2.3 ng/mL, the Serum concentration ([5]; Parent one, sampling date 2010.10.10) was 2.2 ng/mL and the Serum concentration ([5]; Parent one, sampling date 2010.1.17) was 2.0 ng/mL. The Serum concentration ([5]; Parent one, sampling date 2010.3.13) was 2.6 ng/mL, the Serum concentration ([5]; Parent one, sampling date 2011.1.6) was 1.6 ng/mL and the Serum concentration ([5]; Parent one, sampling date 2011.11.26) was 0.9 ng/mL. For the same compound, the Serum concentration ([5]; Parent one, sampling date 2011.2.24) was 1.7 ng/mL, the Serum concentration ([5]; Parent one, sampling date 2011.4.30) was 1.3 ng/mL and the Serum concentration ([5]; Parent one, sampling date 2011.6.22) was 1.5 ng/mL. The Serum concentration ([5]; Parent one, sampling date 2011.8.4) was 1.4 ng/mL, the Serum concentration ([5]; Parent one, sampling date 2011.9.27) was 1.2 ng/mL and the Serum concentration ([5]; Parent one, sampling date 2012..12.28) was 1.0 ng/mL. The Serum concentration ([5]; Parent one, sampling date 2012.1.14) was 1.6 ng/mL, the Serum concentration ([5]; Parent one, sampling date 2012.11.1) was 1.2 ng/mL and the Serum concentration ([5]; Parent one, sampling date 2012.3.4) was 1.3 ng/mL. It also gave a Serum concentration ([5]; Parent one, sampling date 2012.4.29) of 1.2 ng/mL, a Serum concentration ([5]; Parent one, sampling date 2012.7.8) of 1.0 ng/mL and a Serum concentration ([5]; Parent one, sampling date 2012.8.21) of 1.2 ng/mL. It also gave a Serum concentration ([5]; Parent one, sampling date 2013.10.27) of 1.2 ng/mL, a Serum concentration ([5]; Parent one, sampling date 2013.2.18) of 1.2 ng/mL and a Serum concentration ([5]; Parent one, sampling date 2013.3.30) of 1.1 ng/mL. For the same compound, the Serum concentration ([5]; Parent one, sampling date 2013.5.11) was 1.0 ng/mL, the Serum concentration ([5]; Parent one, sampling date 2013.7.15) was 1.0 ng/mL and the Serum concentration ([5]; Parent one, sampling date 2013.9.8) was 0.9 ng/mL. The “Serum concentration before treatment” value ([5]; Parent two) was 2.5 ng/mL, the Serum concentration ([5]; Parent two, sampling date 2009.6.1) was 2.5 ng/mL and the Serum concentration ([5]; Parent two, sampling date 2009.7.7) was 1.8 ng/mL. For the same compound, the Serum concentration ([5]; Parent two, sampling date 2009.8.24) was 1.6 ng/mL, the Serum concentration ([5]; Parent two, sampling date 2010.1.3) was 1.3 ng/mL and the Serum concentration ([5]; Parent two, sampling date 2012.3.13) was 1.3 ng/mL. It also gave a Serum concentration ([5]; Parent two, sampling date 2013.1.1) of 1.0 ng/mL, a Serum concentration ([5]; Parent two, sampling date 2013.10.6) of 0.9 ng/mL and a Serum concentration ([5]; Parent two, sampling date 2013.6.22) of 1.1 ng/mL.
